Experimental data reported in US4891374A, “Imidazo- and triazolothiadiazines” (Hoechst Aktiengesellschaft, priority 1987, dated 1990).
Structures can show the parent of a compound that is named as a salt.

What was measured:
Adjuvant arthritis = Adjuvant arthritis (Pearson): reduction in increase in paw volume; assay type: in vivo, male rats of the Wistar-Lewis strain; conditions: 50 mg/kg p.o. once daily day 1 to day 5; reduction in increase in paw volume vs control
Procedure: The investigations were carried out using the method of Pearson (Arthrit. Rheum. 2 (1959), p. 44). The experimental animals used were male rats of the Wistar-Lewis strain having a body weight between 130 and 200 g. Compounds to be tested were administered orally (p.o.) once daily from day 1 to day 5 of the experiment in doses of 50 mg per kg of body weight. The animals in a control group were given only the vehicle. Each preparation group and the control group contained 8 animals. The criterion used to determine the action was the percentage reduction in the increase in paw volume compared to that of the untreated control group.

lymphocytes = experiment: Inhibition of immunopathological processes: adjuvant arthritis, immune activity of lymphocytes towards mitogens; assay type: in vivo, rat
[1] = test system: lymphocytes from the spleen; experiment: Inhibition of immunopathological processes: type II collagen-induced arthritis, immune activity of spleen lymphocytes towards mitogens; assay type: in vivo, male Wistar rats; conditions: 20-day treatment phase
Description: It is generally accepted today that the advanced course of inflammatory rheumatic disorders is caused mainly by disfunctions in the immune system and that causal therapy can only succeed using medicaments which are capable of interrupting these immunopathological processes.
In this experiment, arthritis was induced in male Wistar rats by means of type II collagen, which could be obtained by standard methods of Miller and Rhodes (Meth. Enzymol. 82 (1982), p. 33) from the nasal septum of the calf and, mixed with Freund's incomplete adjuvant, was injected intradermally into the animals. This immunization procedure was repeated 7 days later. 20 days after the initial immunization, the sick rats were divided into groups each containing 7 animals, which, in the subsequent 20-day treatment phase, received the respective test substance or the pure vehicle (control group) once daily orally.
On day 41 of the experiment, ie. one day after the final administration of substance, lymphocytes were obtained from the spleen of the experimental animals and their immune activity towards mitogens was investigated, since the immune status of lymphocytes is also sensitively impaired in this model.

[2] = test system: Adriamycin (doxorubicin) induced inflammation; experiment: Adriamycin-induced inflammation (paw volume); assay type: in vivo, male Sprague-Dawley rats; conditions: for protective effect against Adriamycin-induced tissue destruction: orally once daily on 4 successive days
Description: According to current opinion, aggressive oxygen radicals, which are formed to excess during the chronic inflammation process and, as highly toxic inflammation mediators themselves, perpetually maintain the destruction of connective tissue which proceeds via irreversible lipid peroxidation of the cell membranes, participate prominently in the progressive course, caused by a number of factors, of rheumatoid arthritis and other inflammatory disorders. As a consequence, pharmaceuticals having an antioxidative action and having the capability to deactivate these extremely cytotoxic oxygen radicals should allow specific intervention in the chronic course of the inflammation. A suitable animal model for this type of tissue destruction caused by oxygen radicals is Adriamycin (doxorubicin) induced inflammation in the rat. The investigations were carried out using the method of D. M. Siegel et al. (Inflammation 4 (1980), p. 233) on male Sprague-Dawley rats having a body weight between 200 and 230 g in groups each containing 7 animals, which received 0.1 mg of Adriamycin, dissolved in 0.1 ml of 0.9% strength sodium chloride solution, by means of subcutaneous injection into the left rear paw. The increase in paw volume was determined 72 hours later by plethysmographic measurement as a measure of the degree of inflammation. The test preparations were administered orally in 1% strength aqueous carboxymethylcellulose suspension once daily on 4 successive days, starting with the day of Adriamycin injection.

in vivo [3] = conditions: rat, po
Procedure: The investigation was in each case carried out on 10 male Sprague-Dawley rats whose gastric mucous membrane had been sensitized by hunger stress. The body weight of the animals was between 200 and 300 g. While allowing free access to the drinking water, the feed was withdrawn 48 hours before administration of the test preparations until sacrifice of the animals. The rats were sacrificed 24 hours after oral administration of the substance, and the stomachs were removed, cleaned under running water and inspected for mucous membrane lesions. All macroscopically visible lesions were regarded as ulcers. The number of animals having ulcers was determined per dose, and this figure was used to calculate, by the method of Litchfield and Wilcoxon (J. Pharmacol. Exp. Ther. 96 (1949), p. 99), the UD50 values, ie. the doses at which lesions were caused in 50% of the animals.

in vivo [4] = conditions: mouse, ip
Procedure: The LD50 values were determined by standard methods from the mortality occurring within 7 days in NMRI (Naval Medical Research Institute) mice (6 animals per dose) after a single intraperitoneal (i.p.) administration.

[5] = test system: mitochondrial lipid peroxidation; experiment: In-vitro inhibition of lipid peroxidation (thiobarbituric acid test), mitochondria; assay type: biochemical; conditions: rat liver mitochondria
Description: (§1) Further convincing evidence of the pronounced protective action of the compounds according to the invention against aggressive oxygen radicals is provided by the thiobarbituric acid test of A. Ottolenghi (Arch. Biochem. Biophys. 79 (1959) pp. 355-363). Using this in-vitro method, the influence on microsomal and mitochondrial lipid peroxidation by antioxidatively active preparations can be determined from the malonodialdehyde produced on oxidative degradation of membrane-bound, polyunsaturated fatty acids.
(§2) Here too, the compounds of the formula I exerted a strong inhibitory action.

[6] = test system: microsomal lipid peroxidation; experiment: In-vitro inhibition of lipid peroxidation (thiobarbituric acid test), microsomes; assay type: biochemical; conditions: rat liver microsomes
Description: as §1, §2

5-lipoxygenase = experiment: Inhibition of 5-lipoxygenase in isolated polymorphonuclear granulocytes (LTB4 and 5-HETE formation); assay type: cell-based, human; conditions: 10^-5 to 10^-6 mol/l; pre-incubation 15 minutes; calcium ionophor A 23 187-stimulated; 15 minutes at 37° C.
Procedure: The inhibitory action of the compounds according to the invention on 5-lipoxygenase-catalyzed degradation of arachidonic acid was determined, as usual, in in-vitro experiments on isolated polymorphonuclear human granulocytes. To this purpose, cells stimulated by calcium ionophor A 23 187 (Calbiochem GmbH, Frankfurt/Main, FRG, Biochemical and Immunochemical Catalog 1985, p. 284) were incubated with ^14 C-labeled arachidonic acid, and the major radioactive degradation products of arachidonic acid formed after 15 minutes at 37° C. by biotransformation, 5-hydroxyeicosatetraenoic acid (5-HETE) and leucotriene B4 (LTB4), which has a particularly strong pro-inflammatory action, were determined quantitatively with the aid of a radio monitor after separation by high-pressure liquid chromatography (HPLC).

Row | SMILES | Adjuvant Arthritis (% inhibition at 50 mg/kg p.o.) (Adjuvant arthritis) [%] | TD50 at 24 h (in vivo [3]) [mg/kg] | LD50 at 168 h (in vivo [4]) [mg/kg] | further results
1 | COc1ccc2cc(C(C)C(=O)O)ccc2c1 (stereo not shown) [naproxen, 2-(6-methoxy2-naphthyl)-propionic acid, reference compound] | 55 |  |  | stimulating action on suppressed immunological response (lymphocytes; doses up to 25 mg/kg): ineffective; curative effects on the greatly weakened immune system ([1]; once daily orally): no action; protective effect against Adriamycin-induced tissue destruction [2]: ineffective
2 | CC(C)(C)c1cc(C2=Nn3ccnc3SC2)cc(C(C)(C)C)c1O [Example 4, 3-(3,5-Di-tert.butyl-4-hydroxyphenyl)-2H-imidazo[2,1-b][1,3,4]thiadiazine hydrochloride] | 69 | > 200 | 300 to 600 | 
3 | CC(C)(C)c1cc(C2=NN3CCN=C3SC2)cc(C(C)(C)C)c1O [Example 1, 3-(3,5-Di-tert.butyl-4-hydroxyphenyl)-6,7-dihydro-2H-imidazo[2,1-b][1,3,4]thiadiazine hydrochloride] | 62 | 400 | > 1200 | normalization of the immunoreactivity (lymphocytes; oral administration of 20 mg/kg): substantial normalization of the immunoreactivity; immune function of B lymphocytes ([1]; 25 mg/kg p.o. once daily): completely normalized; immune function of T lymphocytes ([1]; 25 mg/kg p.o. once daily): completely normalized; IC50 [5]: 4000 nM; IC50 [6]: 500 nM; inhibition of formation of 5-HETE (5-lipoxygenase): significantly inhibit; inhibition of formation of LTB4 (5-lipoxygenase): significantly inhibit; inhibition of Adriamycin-induced tissue destruction ([2]; 80 mg/kg p.o. once daily on 4 successive days, paw volume 72 hours after Adriamycin): 55%; protective effect against Adriamycin-induced tissue destruction [2]: dose-dependent protective effect
4 | CC(C)(C)c1cc(C2=NN3CC(=O)N=C3SC2)cc(C(C)(C)C)c1O [Example 6, 3-(3,5-Di-tert.butyl-4-hydroxyphenyl)-7-oxo-6,7-dihydro-2H-imidazo[2,1-b][1,3,4]-thiadiazine hydrobromide] | 73 | > 200 | 300 to 600 | 
5 | CC1SC2=NCCN2N=C1c1cc(C(C)(C)C)c(O)c(C(C)(C)C)c1 (stereo not shown) [Example 2, 3-(3,5-Di-tert.butyl-4-hydroxyphenyl)-2-methyl-6,7-dihydro-2H-imidazo[2,1-b][1,3,4]thiadiazine hydrochloride] | 63 | 200 | > 1200 | 
6 | CC(C)(C)c1cc(C2=NN3C(=O)CN=C3SC2)cc(C(C)(C)C)c1O [Example 7, 3-(3,5-Di-tert.butyl-4-hydroxyphenyl)-6-oxo-6,7-dihydro-2H-imidazo[2,1-b][1,3,4]thiadiazine hydrobromide] | 59 | > 200 | 300 to 600 | 
7 | CC1Sc2nncn2N=C1c1cc(C(C)(C)C)c(O)c(C(C)(C)C)c1 (stereo not shown) [Example 5, 3-(3,5-Di-tert.butyl-4-hydroxyphenyl)-2-methyl-2H-s-triazolo[3,4-b][1,3,4]thiadiazine] | 56 | > 200 | > 1200 | 
